According to US11149018B2, “Substituted N-arylethyl-2-aminoquinoline-4-carboxamides and use thereof” (Bayer Aktiengesellschaft, priority 2017, dated 2021):

Biological target: FP receptor (Homo sapiens (Human), UniProt P43088)
Assay: In vitro test of inhibition of human FP receptor activity (PGF2α-induced calcium flux in FP-expressing CHEM1 cells)
Assay type: cell-based
Settings: PGF2α 2 nM, some mean values of multiple determinations
How it was run: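 FP antagonism in FP-expressing CHEM1 cells loaded with Fluo-8. Compound preincubated 10 min at 37° C, then receptor stimulated with 2 nM (final) PGF2α in calcium-free Tyrode with 2 mM CaCl2.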

Sequence of FP receptor (P43088 whole entry): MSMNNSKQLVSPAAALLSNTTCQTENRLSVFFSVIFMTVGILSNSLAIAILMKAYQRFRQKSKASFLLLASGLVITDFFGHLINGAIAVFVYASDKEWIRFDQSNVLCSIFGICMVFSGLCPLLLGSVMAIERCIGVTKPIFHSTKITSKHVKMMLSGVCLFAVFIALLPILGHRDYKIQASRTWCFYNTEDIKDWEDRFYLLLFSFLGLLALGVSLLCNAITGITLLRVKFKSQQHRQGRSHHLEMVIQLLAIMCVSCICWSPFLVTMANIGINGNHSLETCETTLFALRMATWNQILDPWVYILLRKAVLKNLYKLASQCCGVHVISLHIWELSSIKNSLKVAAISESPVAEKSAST

Row | Compound | IC50 [nM]
1 | Cc1c(N2CCCC(F)(F)C2)nc2ccc(Br)cc2c1C(=O)NCC(CCC(=O)O)c1ccccc1C(F)(F)F (single isomer, unassigned; (+)) [Example 119, (+)-5-({[6-Bromo-2-(3,3-difluoropiperidin-1-yl)-3-methylquinolin-4-yl]carbonyl}amino)-4-[2-(trifluoromethyl)phenyl]pentanoic acid] | 14
2 | Cc1c(N2CCCC2)nc2ccc(Br)cc2c1C(=O)NCC(CCC(=O)O)c1ccccc1OC(F)(F)F (single isomer, unassigned; (+)) [Example 131, (+)-5-({[6-Bromo-3-methyl-2-(pyrrolidin-1-yl)quinolin-4-yl]carbonyl}amino)-4-[2-(trifluoromethoxy)phenyl]pentanoic acid] | 9.8
3 | Cc1c(N2CCCC(F)(F)C2)nc2ccc(Br)cc2c1C(=O)NCC(CCC(=O)O)c1ccccc1OC(F)(F)F (single isomer, unassigned; (+)) [Example 134, (+)-5-({[6-Bromo-2-(3,3-difluoropiperidin-1-yl)-3-methylquinolin-4-yl]carbonyl}amino)-4-[2-(trifluoromethoxy)phenyl]pentanoic acid] | 4.9
4 | Cc1c(N2CCCCCC2)nc2ccc(Br)cc2c1C(=O)NCC(CCC(=O)O)c1ccccc1OC(F)(F)F (single isomer, unassigned; (+)) [Example 137, (+)-5-({[2-(Azepan-1-yl)-6-bromo-3-methylquinolin-4-yl]carbonyl}amino)-4-[2-(trifluoromethoxy)phenyl]pentanoic acid] | 3.8
5 | Cc1ccc(F)cc1C(CCC(=O)O)CNC(=O)c1c(C)c(N2CCCCC2)nc2ccc(Br)cc12 (single isomer, unassigned; (+)) [Example 149, (+)-5-({[6-Bromo-3-methyl-2-(piperidin-1-yl)quinolin-4-yl]carbonyl}amino)-4-(5-fluoro-2-methylphenyl)pentanoic acid] | 13
6 | Cc1c(N2CCCCC2)nc2ccc(Br)cc2c1C(=O)NCC(CCC(=O)O)c1c(F)cccc1C(F)(F)F (single isomer, unassigned; (+)) [Example 162, (+)-5-({[6-Bromo-3-methyl-2-(piperidin-1-yl)quinolin-4-yl]carbonyl}amino)-4-[2-fluoro-6-(trifluoromethyl)phenyl]pentanoic acid] | 42
7 | Cc1c(N2CCCC2)nc2ccc(Br)cc2c1C(=O)NCC(CCC(=O)O)c1c(F)cccc1C(F)(F)F (single isomer, unassigned; (+)) [Example 164, (+)-5-({[6-Bromo-3-methyl-2-(pyrrolidin-1-yl)quinolin-4-yl]carbonyl}amino)-4-[2-fluoro-6-(trifluoromethyl)phenyl]pentanoic acid] | 80
8 | Cc1c(N2CCCC(F)(F)C2)nc2ccc(Br)cc2c1C(=O)NCC(CCC(=O)O)c1c(F)cccc1C(F)(F)F (single isomer, unassigned; (+)) [Example 168, (+)-5-({[6-Bromo-2-(3,3-difluoropiperidin-1-yl)-3-methylquinolin-4-yl]carbonyl}amino)-4-[2-fluoro-6-(trifluoromethyl)phenyl]pentanoic acid] | 90
9 | Cc1c(N2CCCCC2)nc2ccc(Br)cc2c1C(=O)NCC(CCC(=O)O)c1c(Cl)ccc(Cl)c1Cl (single isomer, unassigned; (+)) [Example 172, (+)-5-({[6-Bromo-3-methyl-2-(piperidin-1-yl)quinolin-4-yl]carbonyl}amino)-4-(2,3,6-trichlorophenyl)pentanoic acid] | 41
10 | Cc1c(N2CCCCC2)nc2ccc(Br)cc2c1C(=O)NCC(CCC(=O)O)c1c(F)cccc1OC(F)F (single isomer, unassigned; (+)) [Example 184, (+)-5-({[6-Bromo-3-methyl-2-(piperidin-1-yl)quinolin-4-yl]carbonyl}amino)-4-[2-(difluoromethoxy)-6-fluorophenyl]pentanoic acid] | 13
11 | Cc1c(N2CCCC(F)C2)nc2ccc(Br)cc2c1C(=O)NCC(CCC(=O)O)c1ccccc1Cl (single isomer, unassigned; (+)) [Example 187, (+)-5-[({6-Bromo-2-[3-fluoropiperidin-1-yl]-3-methylquinolin-4-yl}carbonyl)amino]-4-(2-chlorophenyl)pentanoic acid] | 24
12 | Cc1c(N2CCCC(F)C2)nc2ccc(Br)cc2c1C(=O)NCC(CCC(=O)O)c1ccccc1C(F)(F)F (single isomer, unassigned; (+)) [Example 189, (+)-5-[({6-Bromo-2-[3-fluoropiperidin-1-yl]-3-methylquinolin-4-yl}carbonyl)amino]-4-[2-(trifluoromethyl)phenyl]pentanoic acid] | 25
13 | Cc1c(N2CCCC(F)C2)nc2ccc(Br)cc2c1C(=O)NCC(CCC(=O)O)c1ccccc1C(F)(F)F (single isomer, unassigned; (+)) [Example 190, (+)-5-[({6-Bromo-2-[3-fluoropiperidin-1-yl]-3-methylquinolin-4-yl}carbonyl)amino]-4-[2-(trifluoromethyl)phenyl]pentanoic acid] | 11
14 | CCC1CCCN(c2nc3ccc(Br)cc3c(C(=O)NCC(CCC(=O)O)c3ccccc3C(F)(F)F)c2C)C1 (single isomer, unassigned; (+)) [Example 196, (+)-5-[({6-Bromo-2-[3-ethylpiperidin-1-yl]-3-methylquinolin-4-yl}carbonyl)amino]-4-[2-(trifluoromethyl)phenyl]pentanoic acid] | 2.6
15 | Cc1c(N2CCCC(C)C2)nc2ccc(Br)cc2c1C(=O)NCC(CCC(=O)O)c1ccccc1C(F)(F)F (single isomer, unassigned; (+)) [Example 197, (+)-5-[({6-Bromo-3-methyl-2-[3-methylpiperidin-1-yl]quinolin-4-yl}carbonyl)amino]-4-[2-(trifluoromethyl)phenyl]pentanoic acid] | 21
16 | Cc1c(N2CCCC(C)C2)nc2ccc(Br)cc2c1C(=O)NCC(CCC(=O)O)c1ccccc1C(F)(F)F (single isomer, unassigned; (+)) [Example 198, (+)-5-[({6-Bromo-3-methyl-2-[3-methylpiperidin-1-yl]quinolin-4-yl}carbonyl)amino]-4-[2-(trifluoromethyl)phenyl]pentanoic acid] | 3.7

The remaining compounds from weak to strong by IC50, led by results:

Row | IC50 [nM] | Compound
17 | 56 | Cc1c(N2CCCC(F)(F)C2)nc2ccc(Br)cc2c1C(=O)NCC(CCC(=O)O)c1c(Cl)ccc(Cl)c1Cl (single isomer, unassigned; (+)) [Example 178, (+)-5-({[6-Bromo-2-(3,3-difluoropiperidin-1-yl)-3-methylquinolin-4-yl]carbonyl}amino)-4-(2,3,6-trichlorophenyl)pentanoic acid]
18 | 22 | Cc1c(N2CCCCC2)nc2ccc(Br)cc2c1C(=O)NCC(CCC(=O)O)c1c(Cl)ccc(F)c1F (single isomer, unassigned; (+)) [Example 146, (+)-5-({[6-Bromo-3-methyl-2-(piperidin-1-yl)quinolin-4-yl]carbonyl}amino)-4-(6-chloro-2,3-difluorophenyl)pentanoic acid]
19 | 11 | Cc1c(N2CCCC(F)C2)nc2ccc(Br)cc2c1C(=O)NCC(CCC(=O)O)c1ccccc1OC(F)(F)F (single isomer, unassigned; (+)) [Example 203, (+)-5-[({6-Bromo-2-[3-fluoropiperidin-1-yl]-3-methylquinolin-4-yl}carbonyl)amino]-4-[2-(trifluoromethoxy)phenyl]pentanoic acid]
20 | 9.3 | Cc1c(N2CCCCC2)nc2ccc(Br)cc2c1C(=O)NCC(CCC(=O)O)c1cccc(F)c1Cl (single isomer, unassigned; (+)) [Example 143, (+)-5-({[6-Bromo-3-methyl-2-(piperidin-1-yl)quinolin-4-yl]carbonyl}amino)-4-(2-chloro-3-fluorophenyl)pentanoic acid]
21 | 6.7 | Cc1c(N2CCCCCC2)nc2ccc(Br)cc2c1C(=O)NCC(CCC(=O)O)c1ccccc1C(F)(F)F (single isomer, unassigned; (+)) [Example 122, (+)-5-({[2-(Azepan-1-yl)-6-bromo-3-methylquinolin-4-yl]carbonyl}amino)-4-[2-(trifluoromethyl)phenyl]pentanoic acid]
22 | 6.1 | Cc1c(N2CCCC(F)C2)nc2ccc(Br)cc2c1C(=O)NCC(CCC(=O)O)c1ccccc1Cl (single isomer, unassigned; (+)) [Example 188, (+)-5-[({6-Bromo-2-[3-fluoropiperidin-1-yl]-3-methylquinolin-4-yl}carbonyl)amino]-4-(2-chlorophenyl)pentanoic acid]
23 | 3.8 | Cc1c(N2CCCCC2)nc2ccc(Br)cc2c1C(=O)NCC(CCC(=O)O)c1ccccc1OC(F)(F)F (single isomer, unassigned; (+)) [Example 128, (+)-5-({[6-Bromo-3-methyl-2-(piperidin-1-yl)quinolin-4-yl]carbonyl}amino)-4-[2-(trifluoromethoxy)phenyl]pentanoic acid]
24 | 2.6 | Cc1c(N2CCCC(F)C2)nc2ccc(Br)cc2c1C(=O)NCC(CCC(=O)O)c1ccccc1OC(F)(F)F (single isomer, unassigned; (+)) [Example 204, (+)-5-[({6-Bromo-2-[3-fluoropiperidin-1-yl]-3-methylquinolin-4-yl}carbonyl)amino]-4-[2-(trifluoromethoxy)phenyl]pentanoic acid]
25 | 0.62 | CCC1CCCN(c2nc3ccc(Br)cc3c(C(=O)NCC(CCC(=O)O)c3ccccc3C(F)(F)F)c2C)C1 (single isomer, unassigned; (+)) [Example 193, (+)-5-[({6-Bromo-2-[3-ethylpiperidin-1-yl]-3-methylquinolin-4-yl}carbonyl)amino]-4-[2-(trifluoromethyl)phenyl]pentanoic acid]
26 | 0.41 | CCC1CCCN(c2nc3ccc(Br)cc3c(C(=O)NCC(CCC(=O)O)c3ccccc3OC(F)(F)F)c2C)C1 (single isomer, unassigned; (+)) [Example 205, (+)-5-[({6-Bromo-2-[3-ethylpiperidin-1-yl]-3-methylquinolin-4-yl}carbonyl)amino]-4-[2-(trifluoromethoxy)phenyl]pentanoic acid]
